Assay results from patent US20220380375A1, “SUBSTITUTED AROMATIC FUSED RING DERIVATIVE AND COMPOSITION COMPRISING SAME, AND USE THEREOF” (Shenzhen TargetRx, Inc., priority 2019, published 2022).

How the values were obtained:
Format in all cases: cell-based
[1] = tested on: Ba/F3 FLT3-ITD cells; assay: Cytotoxicity assay (CellTiter-Glo), Ba/F3 FLT3-ITD; conditions: ratio of Ba/F3 parental IC50 to Ba/F3 FLT3-ITD IC50
Method: (§1) Inhibitory effects of example compounds on the activity of Ba/F3 parental generation, Ba/F3 KIF5B-RET, Ba/F3 KIF5B-RET^V804M, Ba/F3 KIF5B-RET^V804L, Ba/F3 KIF5B-RET^G810R, Ba/F3 FLT3-ITD, Ba/F3 FLT3-ITD^D835Y, Ba/F3 FLT3-ITD^F691L cells were determined.
(§2) Materials and reagents: fetal bovine serum FBS (GIBCO, Cat #10099141), CellTiter-Glo® Luminescent Cell Viability Assay kit (Promega, Cat #G7572), 96-well black-wall clear flat-bottom plate (Corning®, Cat #3603).
(§3) 1. Cells in the logarithmic growth phase were harvested and counted with a […]. Cell viability was detected by a trypan blue exclusion method, ensuring that cell viability was 90% or more; 2. Cell concentration was adjusted to about 3000 cells/well; 90 μl of cell suspension was added to each well of the 96-well plate; 3. The cells in the 96-well plate were incubated overnight under the condition of 37° C., 5% CO2, and 95% humidity.
(§4) 1. A series of compound solutions were formulated by 3.16-fold serial dilution starting from a concentration of 10 μM, resulting in 9 concentrations. 10 μL of the compound solutions were added in each well of the 96-well plate seeded with cells in triplicate for each compound concentration; 2. The cells in the 96-well plate added with compounds were further incubated under the condition of 37° C., 5% CO2, and 95% humidity for 72 hrs, and then CTG analysis was carried out.
(§5) 1. CTG reagent was thawed, and the cell plate was equilibrated at room temperature for 30 minutes; 2. An equal volume […] of CTG solution was added to each well; 3. The cell plate was shaken on an orbital shaker for 5 minutes to lyse the cells; 4. The cell plate was placed at RT for 20 minutes to stabilize the luminescence signal; 5. Luminescence value was read.
(§6) Data were Analyzed by GraphPad Prism 5.0 Software, and Fitted by Nonlinear S-Curve Regression to obtain a dose-response curve, from which IC50 values were calculated.
(§7) Cell survival rate (%)=(luminescence value of drug to be tested−luminescence value of culture medium control)/(luminescence value of cell control−luminescence value of culture medium control)×100%.

[2] = target: T1, Ba/F3 FLT3-ITD cells (Homo sapiens, UniProt P36888, cells depend on it, form not given); assay: Cytotoxicity assay (CellTiter-Glo), Ba/F3 FLT3-ITD; conditions: CellTiter-Glo, 72 hrs; read-out: Ba/F3 FLT3-ITD IC50
T1 construct: Ba/F3 FLT3-ITD IC50 (nM); other: CellTiter-Glo, 72 hrs
T1 sequence (P36888 1-993): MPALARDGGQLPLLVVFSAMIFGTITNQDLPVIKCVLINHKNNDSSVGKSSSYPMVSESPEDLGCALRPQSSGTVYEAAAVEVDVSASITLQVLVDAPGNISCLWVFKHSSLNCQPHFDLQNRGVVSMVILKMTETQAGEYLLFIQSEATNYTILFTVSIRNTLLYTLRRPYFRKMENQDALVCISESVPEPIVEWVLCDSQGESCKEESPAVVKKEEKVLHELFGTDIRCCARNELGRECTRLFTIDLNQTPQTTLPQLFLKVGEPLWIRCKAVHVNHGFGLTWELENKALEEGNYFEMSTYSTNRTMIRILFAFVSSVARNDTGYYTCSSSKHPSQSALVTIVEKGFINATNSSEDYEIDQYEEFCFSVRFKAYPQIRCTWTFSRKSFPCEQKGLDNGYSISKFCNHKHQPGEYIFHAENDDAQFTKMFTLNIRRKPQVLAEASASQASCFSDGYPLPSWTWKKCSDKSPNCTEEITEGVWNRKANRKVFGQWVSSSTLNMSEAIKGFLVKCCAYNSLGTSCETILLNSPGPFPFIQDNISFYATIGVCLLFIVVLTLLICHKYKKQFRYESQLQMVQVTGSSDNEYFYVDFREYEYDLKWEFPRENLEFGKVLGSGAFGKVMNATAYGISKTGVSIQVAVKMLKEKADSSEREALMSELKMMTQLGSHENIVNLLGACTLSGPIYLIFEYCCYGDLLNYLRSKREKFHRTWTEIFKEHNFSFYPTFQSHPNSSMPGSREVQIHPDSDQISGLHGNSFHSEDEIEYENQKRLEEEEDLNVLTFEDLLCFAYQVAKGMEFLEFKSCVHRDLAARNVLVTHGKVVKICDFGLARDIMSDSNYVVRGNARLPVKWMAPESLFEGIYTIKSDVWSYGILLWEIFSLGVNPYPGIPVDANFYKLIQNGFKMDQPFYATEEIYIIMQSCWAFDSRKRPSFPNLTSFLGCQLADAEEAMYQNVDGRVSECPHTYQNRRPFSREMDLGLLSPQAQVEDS
Method: as §1, §2, §3, §4, §5, §6, §7

[3] = target: T2, Ba/F3 KIF5B-RET^G810R cells (Homo sapiens, UniProt P07949, G810R, cells depend on it); assay: Cytotoxicity assay (CellTiter-Glo), Ba/F3 KIF5B-RET G810R; conditions: CellTiter-Glo, 72 hrs; read-out: Ba/F3 KIF5B-RET^G810R IC50
T2 construct: Ba/F3 KIF5B-RET^G810R IC50 (nM); other: CellTiter-Glo, 72 hrs; fused on or other part: P33176 (Kinesin-1 heavy chain)
T2 sequence (P07949 whole entry G810R, the tested form may be a part): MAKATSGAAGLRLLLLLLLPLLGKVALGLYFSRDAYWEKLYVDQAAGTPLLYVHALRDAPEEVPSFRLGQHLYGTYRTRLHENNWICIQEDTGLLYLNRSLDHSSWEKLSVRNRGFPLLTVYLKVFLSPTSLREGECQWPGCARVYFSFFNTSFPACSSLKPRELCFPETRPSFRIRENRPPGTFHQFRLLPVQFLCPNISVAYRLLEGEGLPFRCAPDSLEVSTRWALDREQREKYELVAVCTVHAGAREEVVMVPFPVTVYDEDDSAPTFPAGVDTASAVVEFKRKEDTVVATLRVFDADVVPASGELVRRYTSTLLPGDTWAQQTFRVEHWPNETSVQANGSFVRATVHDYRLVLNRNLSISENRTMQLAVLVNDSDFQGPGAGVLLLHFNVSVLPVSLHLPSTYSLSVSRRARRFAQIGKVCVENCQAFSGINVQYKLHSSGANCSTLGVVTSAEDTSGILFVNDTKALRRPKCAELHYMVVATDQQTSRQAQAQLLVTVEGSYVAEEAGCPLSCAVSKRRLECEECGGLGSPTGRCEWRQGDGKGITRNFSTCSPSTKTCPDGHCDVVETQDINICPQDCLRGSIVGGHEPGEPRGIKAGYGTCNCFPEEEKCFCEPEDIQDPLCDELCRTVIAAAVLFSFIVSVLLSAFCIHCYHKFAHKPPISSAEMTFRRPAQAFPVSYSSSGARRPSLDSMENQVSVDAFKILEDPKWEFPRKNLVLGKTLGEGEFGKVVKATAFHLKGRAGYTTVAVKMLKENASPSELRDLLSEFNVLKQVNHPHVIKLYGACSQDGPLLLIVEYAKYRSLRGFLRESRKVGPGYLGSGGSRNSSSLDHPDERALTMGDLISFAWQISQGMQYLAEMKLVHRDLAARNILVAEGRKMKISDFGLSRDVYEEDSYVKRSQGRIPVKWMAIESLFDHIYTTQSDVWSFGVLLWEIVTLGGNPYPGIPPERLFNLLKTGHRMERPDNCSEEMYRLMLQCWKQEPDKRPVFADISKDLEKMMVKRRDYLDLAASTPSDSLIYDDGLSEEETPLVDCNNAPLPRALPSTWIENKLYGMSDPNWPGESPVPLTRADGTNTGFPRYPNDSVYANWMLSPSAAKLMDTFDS
Method: as §1, §2, §3, §4, §5, §6, §7

[4] = tested on: Ba/F3 KIF5B-RET^G810R cells; assay: as above; conditions: ratio of Ba/F3 parental IC50 to Ba/F3 KIF5B-RET^G810R IC50
Method: as §1, §2, §3, §4, §5, §6, §7

[5] = target: T3, Ba/F3 KIF5B-RET^V804L cells (Homo sapiens, UniProt P07949, V804L, cells depend on it); assay: Cytotoxicity assay (CellTiter-Glo), Ba/F3 KIF5B-RET V804L; conditions: CellTiter-Glo, 72 hrs; read-out: Ba/F3 KIF5B-RET^V804L IC50
T3 construct: Ba/F3 KIF5B-RET^V804L IC50 (nM); other: CellTiter-Glo, 72 hrs; fused on or other part: P33176 (Kinesin-1 heavy chain)
T3 sequence (P07949 whole entry V804L, the tested form may be a part): as the sequence (P07949 whole entry G810R, the tested form may be a part) above, with V804L, R810G counted along it
Method: as §1, §2, §3, §4, §5, §6, §7

[6] = tested on: Ba/F3 KIF5B-RET^V804L cells; assay: as above; conditions: ratio of Ba/F3 parental IC50 to Ba/F3 KIF5B-RET^V804L IC50
Method: as §1, §2, §3, §4, §5, §6, §7

[2H]C([2H])([2H])C(n1nc(-c2ccc(CC(=O)Nc3cc(C(C)(C)C(F)(F)F)no3)cc2)c2c(N)ncnc21)C([2H])([2H])[2H] [Compound T-11, 2-(4-(4-amino-1-(propan-2-yl-1,1,1,3,3,3-d6)-1H-pyrazolo[3,4-d]pyrimidin-3-yl)phenyl)-N-(3-(1,1,1-trifluoro-2-methylpropan-2-yl)isoxazol-5-yl)acetamide]
Ba/F3 FLT3-ITD Selectivity on parental generation [1]: 7543.8 | GI50 [2]: 0.73 nM | GI50 [3]: 5.86 nM | Ba/F3 KIF5B-RET^G810R Selectivity on parental generation [4]: 939.8 | GI50 [5]: 6.1 nM | Ba/F3 KIF5B-RET^V804L Selectivity on parental generation [6]: 902.8

[2H]C([2H])([2H])C(n1cc(-c2ccc(CC(=O)Nc3cc(C(C)(C)C(F)(F)F)on3)cc2)c2c(N)ncnc21)C([2H])([2H])[2H] [Compound T-12, 2-(4-(4-amino-7-(propen-2-yl-1,1,1,3,3,d6)-7H-pyrrolo[2,3-d]pyrimidin-5-yl)phenyl)-N-(5-(1,1,1-trifluo-2-methylpropan-2-yl)isoxazol-3-yl)acetamide]
Ba/F3 FLT3-ITD Selectivity on parental generation [1]: 1531.4 | GI50 [2]: 0.7 nM | GI50 [3]: 6.4 nM | Ba/F3 KIF5B-RET^G810R Selectivity on parental generation [4]: 167.5 | GI50 [5]: 8.11 nM | Ba/F3 KIF5B-RET^V804L Selectivity on parental generation [6]: 132.2
